In US8168642B2, “Dihydropyrimidine compounds and their uses in preparation of medicaments for treating and preventing antiviral diseases” (Beijing Molecule Science and Technology Co., Ltd., priority 2006, dated 2012):

Assays:
HBV DNA = experiment: Antiviral activity: inhibition of HBV DNA in supernatant of HepG 2.2.15 cells (dot blot hybridization); type: cell-based; details: Hepatitis B virus, HepG2.2.15, 192 h, 8 days incubation, HB-specific DNA in supernatant, read-out: IC50 (inhibitory effect on HBV DNA)
Experimental: The antiviral effect of the compound of the present invention is determined according to the methods described by Sells, et al (M. A. Sells, M. L. Chen, G. Proc. Natl. Acad. Sci. 1987, 84, 1005-1009) and Korba, et al (B. E. Korba, J. L. Gerin Antiviral Research 1992, 19, 55-70).
(§1) The antiviral test was carried out in a 96-cell microtiter plate. The first column of the plate only contained a culture medium and HepG 2.2.15 cells, as a blank control.
(§2) First, a stock solution ([…]) of a test compound was dissolved in DMSO, and further diluted with a culture medium for growth of HepG 2.2.15 cells. Usually, the compound of the present invention was transferred by suction at a test concentration of 100 μg/ml (the first test concentration) to each cell of the second column of the microtiter plate, and then diluted with the culture medium for growth plus 2% fetal bovine serum (25 μL), by 2 times once, up to 2^10 times at the maximum.
(§3) Then, 225 μL of a suspension of HepG 2.2.15 cells in the culture medium for growth plus 2% fetal bovine serum (5×10^4 cells/ml) was added to each cell of the 96-cell microtiter plate.
(§4) The test mixture was incubated under the conditions of 37° C., 5% CO2 for 4 days. Then, the supernatant was removed by suction, and to each cell 225 μL of a new-prepared culture medium for growth was added. Again, the compound of the present invention was added with a solution of 25 μL. The obtained mixture was further incubated for 4 days.
Thereafter, the supernatant was collected, and sucked in vacuum to a 96-cell dot blot chamber covered by nylon film (used in accordance with the instructions for use provided by the manufacturer).
Determination of Antiviral Activity
After the supernatant was transferred onto the nylon film of the dot blot device (see the contents hereinabove), the supernatant of HepG 2.2.15 cells was denaturated (1.5 M NaCl/0.5 M NaOH), neutralized (3 M NaCl/0.5 M Tris. HCl, pH 7.5) and washed (2×SSC). Then, the filter film was kept at 120° C. for 2-4 hours, whereby DNA was baked on the filter film.
Usually, viral DNA of HepG 2.2.15 cells treated on the nylon film was detected by using a non-radioactive digoxigenin labeled HB-specific DNA probe. Wherein, each time the probe was labeled with digoxigenin, purified and hybridized according to the directions for use given by the manufacturer.
Briefly, pre-hybridization and hybridization were conducted with 5×SSC, 1× blocking agent, 0.1% N-lauroyl sarcosine, 0.02% SDS and 100 μg sperm DNA of black carp. After pre-hybridization at 60° C. for 30 min, a specific hybridization (at 60° C. for 14 hr) was conducted with 20-40 ng/ml digoxigenin labeled denaturalized HBV specific DNA. Then, the film was washed, followed by HBV DNA detection with digoxigenin antibody.
The immunology detection of digoxigenin labeled DNA was conducted according to the directions for use given by the manufacturer.
Briefly speaking, the film was washed and pre-hybridized with a blocking agent (in accordance with the directions for use given by the manufacturer), and then hybridized with an anti-DIG antibody that had been previously coupled onto an alkaline phosphatase for 30 min. After washing, an alkaline phosphatase substrate CSPD was added, and cultured together with the filter for 5 min, and then wrapped in a plastic film, followed by further culturing at 37° C. for 15 min. The filter was exposed to X-ray, and the chemical luminous signal (culturing for 10 min to 2 hr according to the signal strength) of HB-specific DNA on the film was detected, whereby a half inhibitory concentration (IC50) was calculated.
The half inhibitory concentration (IC50) refers to the concentration of the compound of the present invention which reduces the HB-specific band by 50% as compared with the untreated sample.

HepG 2.2.15 cells = experiment: Cytotoxicity in HepG 2.2.15 cells (cell morphology under microscope after 8 days, Reed&Muench); type: cell-based; details: pathological change of cells after 8 days
Experimental: as §1, §2, §3, §4
Prior to collection of the supernatant for determination of the antiviral effect, the change in cytotoxicity of HepG 2.2.15 cells was investigated by using optical microscopic technique or biochemical detection method (e.g., Alamar Blue staining or Trypan Blue staining).
Determination of Cytotoxicity
The substance-induced change in cytotoxicity in HepG 2.2.15 cells or in inhibition of the cells could be determined by using, e.g., optical microscopic technique, and expressed by the change of cell morphology. Such substance-induced changes, e.g., cell lysis, cavity formation or change in cell morphology, in HepG 2.2.15 cells were apparent as compared to the untreated cells.
Taking the observed pathological change of cells as index, the pathological change of cells was observed under microscope after 8 days, a complete destroy being indicated as 4; 75% being indicated as 3; 50% being indicated as 2; 25% being indicated as 1; and no pathological change being indicated as 0. The average extents of pathological change of cells and the inhibition percentages at various concentrations were calculated. According to Reed&Muench method, a half toxic concentration (TC50) and a maximum non-toxic concentration (TC0) were calculated.
TC50 refers to the concentration of the compound of the present invention when 50% of cells have a similar morphology to the corresponding cells as a control.

Structure (SMILES): CCOC(=O)C1=C(C)NC(c2cncs2)=NC1c1ccc(F)cc1Cl (stereo not drawn) [Example 42, ethyl 2-(thiazol-5-yl)-4-(2-chloro-4-fluorophenyl)-6-methyl-1,4-dihydro-pyrimidin-5-carboxylate]
- IC50 (HBV DNA): 3.61 µM
- TD50 (HepG 2.2.15 cells): >32.90 µM
- melting point: 121 to 125 °C

Structure (SMILES): CCOC(=O)C1=C(C)NC(c2cnc(NC(C)=O)s2)=NC1c1ccc(F)cc1Cl (stereo not drawn) [Example 43, ethyl 2-(2-acetylaminothiazol-5-yl)-4-(2-chloro-4-fluorophenyl)-6-methyl-1,4-dihydro-pyrimidin-5-carboxylate]
- IC50 (HBV DNA): 2.29 µM
- TD50 (HepG 2.2.15 cells): 76.43 µM
- melting point: > 250 °C

Structure (SMILES): CCOC(=O)C1=C(C)NC(c2cnc(N)s2)=NC1c1ccc(F)cc1Cl (stereo not drawn) [Example 44, ethyl 2-(2-aminothiazol-5-yl)-4-(2-chloro-4-fluorophenyl)-6-methyl-1,4-dihydro-pyrimidin-5-carboxylate]
- IC50 (HBV DNA): 2.69 µM
- TD50 (HepG 2.2.15 cells): 22.56 µM
- melting point: 132 to 135 °C

Structure (SMILES): CCOC(=O)C1=C(C)NC(c2nccn2C)=NC1c1ccc(F)cc1Cl (stereo not drawn) [Example 49, ethyl 2-(N-methyl-1H-imidazol-2-yl)-4-(2-chloro-4-fluorophenyl)-6-methyl-1,4-dihydro-pyrimidin-5-carboxylate]
- IC50 (HBV DNA): 0.27 µM
- TD50 (HepG 2.2.15 cells): 38.83 µM
- melting point: 166 to 167 °C

Structure (SMILES): CCOC(=O)C1=C(C)NC(c2nccn2Cc2ccccc2)=NC1c1ccc(F)cc1 (stereo not drawn) [Example 51, ethyl 2-(N-benzyl-1H-imidazol-2-yl)-4-(4-fluorophenyl)-6-methyl-1,4-dihydro-pyrimidin-5-carboxylate]
- IC50 (HBV DNA): 6.65 µM
- TD50 (HepG 2.2.15 cells): 36.87 µM
- melting point: 162 to 164 °C

Structure (SMILES): CCOC(=O)C1=C(C)NC(c2nccn2C)=NC1c1ccc(F)cc1 (stereo not drawn) [Example 53, ethyl 2-(N-methyl-1H-imidazol-2-yl)-4-(4-fluorophenyl)-6-methyl-1,4-dihydro-pyrimidin-5-carboxylate]
- IC50 (HBV DNA): 10.2 µM
- TD50 (HepG 2.2.15 cells): 281.14 µM
- melting point: 134 to 136 °C

Structure (SMILES): COC(=O)C1=C(C)NC(c2c(F)cccc2F)=NC1c1ccc(F)cc1Cl (stereo not drawn) [Example 55, methyl 2-(2,6-difluorophenyl)-4-(2-chloro-4-fluorophenyl)-6-methyl-1,4-dihydro-pyrimidin-5-carboxylate]
- IC50 (HBV DNA): 4.01 µM
- TD50 (HepG 2.2.15 cells): 60.84 µM
- melting point: 126 to 128 °C

Structure (SMILES): CCOC(=O)C1=C(C)NC(c2c(F)cccc2F)=NC1c1ccc(F)cc1Cl (stereo not drawn) [Example 56, ethyl 2-(2,6-difluorophenyl)-4-(2-chloro-4-fluorophenyl)-6-methyl-1,4-dihydro-pyrimidin-5-carboxylate]
- IC50 (HBV DNA): 2.03 µM
- TD50 (HepG 2.2.15 cells): 117.50 µM
- melting point: 163 to 165 °C

Structure (SMILES): CCOC(=O)C1=C(C)NC(c2c(F)cc(F)cc2F)=NC1c1ccc(F)cc1Cl (stereo not drawn) [Example 58, ethyl 2-(2,4,6-trifluorophenyl)-4-(2-chloro-4-fluorophenyl)-6-methyl-1,4-dihydro-pyrimidin-5-carboxylate]
- IC50 (HBV DNA): 2.6 µM
- TD50 (HepG 2.2.15 cells): 32.50 µM
- melting point: 184 to 186 °C

Structure (SMILES): COC(=O)C1=C(C)NC(c2c(F)cc(F)cc2F)=NC1c1ccc(F)cc1Cl (stereo not drawn) [Example 59, methyl 2-(2,4,6-trifluorophenyl)-4-(2-chloro-4-fluorophenyl)-6-methyl-1,4-dihydro-pyrimidin-5-carboxylate]
- IC50 (HBV DNA): 3.39 µM
- TD50 (HepG 2.2.15 cells): >30.30 µM
- melting point: 112 to 114 °C
